Experimental data reported in US10039779B2, “Combination formulation of two antiviral compounds” (priority 2013, dated 2018).

Experiments:
[1] = system: HCV; experiment: Dose selection: antiviral response and Emax PK/PD modeling; type: in vivo, Hepatitis C virus; conditions: for breakthrough (BT) rate: in combination with other therapeutic agents
Protocol: The sofosbuvir dose selected for the tablet formulation is 400 mg once daily. Support for the 400 mg sofosbuvir dose can be derived from Emax PK/PD modeling with early virological and human exposure data which also supports the selection of a 400 mg sofosbuvir dose over others tested.
The mean sofosbuvir major metabolite AUCtau for the 400 mg sofosbuvir dose is associated with approximately 77% of the maximal HCV RNA change from baseline achievable as determined by this model, a value which is on the cusp of the plateau of the exposure-response sigmoidal curve. […] Therefore, given that sofosbuvir exposure with 200 mg tablets appears dose-proportional with single doses up to 1200 mg, doses below 400 mg are expected to yield considerable reductions in the magnitude of HCV RNA change from baseline.
The sofosbuvir dose of 400 mg once daily was associated with higher SVR rates in genotype 1 HCV infected patients as compared to the 200 mg once daily dose when given in conjunction with additional HCV therapeutics for 24 weeks. Safety and tolerability appeared similar across both dose levels. In addition, when sofosbuvir 400 mg once daily plus other HCV therapeutics were given to genotype 2 or 3 HCV infected patients, 100% SVR24 was observed.
The maximum median HCV RNA log 10 reduction was 3 or greater for all cohorts dosed with ≥3 mg of ledipasvir. […] Therefore, 30 mg and 90 mg of ledipasvir were selected as the dose for the formulations described herein.
Therefore, the 90 mg dose of ledipasvir may confer a greater antiviral coverage that prevents viral breakthrough.

[2] = Ledipasvir single-dose PK by concomitant food intake status; type: in vivo; conditions: for CL/F: Ledipasvir 30 mg single dose, N = 8, mean
[3] = pH-solubility profile and solubility in simulated intestinal media; type: physicochemical
[4] = as above; type: physicochemical; remark: listed apart in the source
Protocol: Excess solid ledipasvir was added to a range of pH-adjusted aqueous solutions (titrated with HCl or NaOH) and stirred for 48 hours at room temperature. The suspensions were then filtered through regenerated cellulose syringe filters. The pH value of the supernatant was measured, and the supernatant was diluted as appropriate with 50:50 H2O+0.1% TFA:ACN and assayed for ledipasvir content by the HPLC-UV method.
Solubility of ledipasvir amorphous free base was assessed in three types of simulated intestinal fluids at pH 6.5 or pH 5.0; and simulated intestinal bile salt and lecithin mixture (SIBLM), pH 6.4. Excess solid ledipasvir was added to the respective SIFs and stirred for 48 hours at room temperature. The resulting suspensions were then filtered through regenerated cellulose syringe filters. The supernatant was diluted as appropriate with 50:50 H2O+0.1% TFA:ACN and assayed for ledipasvir content by the HPLC-UV method.

[5] = PK of Sofosbuvir/Ledipasvir tablets fasted or with meals; conditions: for AUC(0-inf) / AUC(0-t) / Cmax: plasma, po, plasma analyte, n = 29, mean (% CV); for AUC(0-inf): AUCinf; for AUC(0-t): AUClast
[6] = Pharmacokinetics of sofosbuvir and ledipasvir alone or in combination; type: in vivo; parameters: AUC(0-inf): concentration or dose not given beside the values; conditions: for AUC(0-inf): plasma
[7] = Compatibility/stability of sofosbuvir and ledipasvir:copovidone solid dispersion blend; type: physicochemical; conditions: for Strength / Total Impurity Content: blend pellets, open glass vials
Protocol: The compatibility of sofosbuvir anhydrous crystalline drug substance was evaluated with the ledipasvir:copovidone solid dispersion. A blend of the sofosbuvir and ledipasvir:copovidone (1:1) solid dispersion was prepared at a ratio representative of the final 400 mg sofosbuvir/90 mg ledipasvir tablets. […]

[8] = nonlinear least-square regression fit of pH-solubility profile
[9] = Sofosbuvir/Ledipasvir Tablet, Fasted
[10] = Sofosbuvir/Ledipasvir Tablet, High-Calorie/High-Fat Meal
[11] = Sofosbuvir/Ledipasvir Tablet, Moderate-Fat Meal
[12] = Sofosbuvir + Ledipasvir vs single agent alone
[13] = po, plasma analyte, Ledipasvir alone, n = 17, mean (% CV)

COC(=O)N[C@H](C(=O)N1CC2(CC2)C[C@H]1c1ncc(-c2ccc3c(c2)C(F)(F)c2cc(-c4ccc5nc([C@@H]6[C@H]7CC[C@H](C7)N6C(=O)[C@@H](NC(=O)OC)C(C)C)[nH]c5c4)ccc2-3)[nH]1)C(C)C [Ledipasvir, (1-{3-[6-(9,9-difluoro-7-{2-[5-(2-methoxycarbonylamino-3-methyl-butyryl)-5-aza-spiro[2.4]hept-6-yl]-3H-imidazol-4-yl}-9H-fluoren-2-yl)-1H-benzoimidazol-2-yl]-2-aza-bicyclo[2.2.1]heptane-2-carbonyl}-2-methyl-propyl)-carbamic acid methyl ester]
share of maximal antiviral response (Emax PK/PD model) ([1]; 30 mg dose, genotype 1a HCV infected patients): > 95%
breakthrough (BT) rate ([1]; 30 mg, 11/33): 33%
breakthrough (BT) rate ([1]; 90 mg, 9/74): 12%
AUCinf GLSM Ratio (Fed/Fasted) ([2]; Ledipasvir 30 mg): 55.55%
AUClast GLSM Ratio (Fed/Fasted) ([2]; Ledipasvir 30 mg): 56.71%
Cmax GLSM Ratio (Fed/Fasted) ([2]; Ledipasvir 30 mg): 54.90%
CL/F ([2]; fasted): 17,034.5 mL/h
CL/F ([2]; fed (high-fat meal)): 26,917.9 mL/h
decrease each in mean Cmax, AUClast, and AUCinf ([2]; high-fat meal vs fasted, 30 mg): approximately 45%
decrease in exposure with a high-fat meal relative to fasted state ([2]; ledipasvir alone in a conventional formulation): roughly 2 fold
permeability [3]: high permeability
BCS classification [4]: BCS Class 2
pKa1 [4, 8]: 5.0
pKa2 [4, 8]: 4.0
% GMR (90% CI) [Moderate-Fat/Fasted] of AUCinf ([5]; Sofosbuvir/Ledipasvir Tablet): 115 (99.4, 134) %
% GMR (90% CI) [Moderate-Fat/Fasted] of AUClast ([5]; Sofosbuvir/Ledipasvir Tablet): 114 (98.0, 133) %
% GMR (90% CI) [Moderate-Fat/Fasted] of Cmax ([5]; Sofosbuvir/Ledipasvir Tablet): 109 (93.5, 126) %
GMR (90% CI) [High-Fat/Fasted] of AUCinf ([5]; Sofosbuvir/Ledipasvir Tablet): 103 (88.5, 119) %
GMR (90% CI) [High-Fat/Fasted] of AUClast ([5]; Sofosbuvir/Ledipasvir Tablet): 104 (88.8, 121) %
GMR (90% CI) [High-Fat/Fasted] of Cmax ([5]; Sofosbuvir/Ledipasvir Tablet): 88.2 (75.8, 103) %
AUC(0-inf) [5, 9]: 10600 ng·h/mL
AUC(0-inf) [5, 10]: 9220 ng·h/mL
AUC(0-inf) [5, 11]: 10600 ng·h/mL
AUC(0-t) [5, 9]: 8600 ng·h/mL
AUC(0-t) [5, 10]: 7550 ng·h/mL
AUC(0-t) [5, 11]: 8650 ng·h/mL
Cmax [5, 9]: 324 ng/mL
Cmax [5, 10]: 255 ng/mL
Cmax [5, 11]: 319 ng/mL
effect of food on pharmacokinetics ([5]; sofosbuvir/ledipasvir composition, fed vs fasted): does not appear to be altered by food
% GMR (90% CI) of AUCinf [6, 12]: 95.7 (92.1, 99.5) %
% GMR (90% CI) of AUClast [6, 12]: 96.5 (89.9, 104) %
% GMR (90% CI) of Cmax [6, 12]: 95.5 (91.9, 99.1) %
AUC(0-inf) [6, 13]: 11900 ng·h/mL
AUC(0-inf) ([6]; po, plasma analyte, Sofosbuvir + Ledipasvir, n = 17, mean (% CV)): 11400 ng·h/mL
Cmax [6, 13]: 375 ng/mL
degradation in blend with the other active ([7]; 40° C./75% RH and 60° C./ambient humidity, two and four weeks): no degradation was observed
Strength ([7]; 45° C./75% RH, 0 weeks): 98.8%
Total Impurity Content ([7]; 45° C./75% RH, 0 weeks): 0.0%
Strength ([7]; 45° C./75% RH, 2 weeks): 96.9%
Total Impurity Content ([7]; 45° C./75% RH, 2 weeks): 0.0%
Strength ([7]; 45° C./75% RH, 4 weeks): 97.1%
Total Impurity Content ([7]; 45° C./75% RH, 4 weeks): 0.0%
Strength ([7]; 60° C., 0 weeks): 98.8%
Total Impurity Content ([7]; 60° C., 0 weeks): 0.0%
Strength ([7]; 60° C., 1 week): 99.2%
Total Impurity Content ([7]; 60° C., 1 week): 0.0%
Strength ([7]; 60° C., 2 weeks): 99.6%
Total Impurity Content ([7]; 60° C., 2 weeks): 0.0%
Strength ([7]; 60° C., 4 weeks): 98.9%
Total Impurity Content ([7]; 60° C., 4 weeks): 0.0%
